What was measured:
HIV-1 Tat (p16/p14) = assay: Immunoblot of HIV-1 Tat (p16/p14) in HeLa rtTA-HIV-ΔMls cells; type: cell-based; conditions: ~IC80 of CS, relative to DMSO (+Dox)
Protocol: Figure 3 CSs reduce expression of essential HIV-1 structural and regulatory proteins. HeLa rtTA-HIV-ΔMls cells were treated with ~IC80s of CSs (per Methods), 100 nM of RIDK-21 or -27, or DMSO for 4 h prior to Dox induction for 20 h as indicated. Cell extracts were analyzed by immunoblot of (a) HIV-1 structural proteins: Env (gp160/gp120) and Gag (p41/p24), and (b–d) viral regulatory factors: Rev (p19, b) and Tat (p16/p14, c,d). (d) Graph quantitating Tat expression. Results from (a–d) are from n ≥ 3, mean, s.e.m. […] (a and d) Lanes were cropped and assembled from the same blot per box from Supplementary Figure S4a,b and c, respectively.
To monitor HIV-1 gene expression or replication, Gag release into cell culture supernatants were assayed by ELISA using a p24^CA antigen capture assay kit (AIDS & Cancer Virus Program, NCI-Frederick, Frederick, MD USA). […] For analysis of HIV-1 and SR protein expression (and phosphorylation states with calf intestinal alkaline phosphatase treatments), cells were lysed and analyzed by western blot as previously outlined. […] Activation of MAPKs was determined by western blot quantitation and calculation of phospho/total protein levels. […] Stain-Free™ gels were casted and proteins were detected as described in 10% TGX-Stain-Free FastCast Acrylamide Kit from Bio-Rad (#161-0183). […]

HIV-1 gene expression = HIV-1 gene expression in CD4+ T-cell line 24ST1NLESG, p24CA ELISA; type: cell-based, HIV-1 (pNL4-3); conditions: PMA induced, 24 h, p24CA ELISA of supernatants
Protocol: Drug/compounds were tested for effects on HIV-1 gene expression using inducible Tet-ON HIV-1 cell lines [HeLa rtTA-HIV-ΔMls or rtTA-HIV(Gag-GFP)] containing a HIV-1 (LAI) provirus activatable by Dox or tetracycline transactivator (tTA)[69]. The rtTA-HIV-ΔMls provirus was modified and used as previously reported[9]–[11],[70]. The rtTA-HIV(Gag-GFP) provirus was generated by deletion of the PR and RT coding regions within pol and insertion of GFP to the 3′ of gag, creating GFP fused to the C-terminal of Gag. After 4 h of drug/compound treatment, HIV-1 gene expression was activated with Dox (2 μg/mL) or tTA (described below). Equal concentrations of DMSO were present in each experiment. After ~20 h, cells and media were harvested to monitor the effects of drug/compound treatments as described below. HIV-1 gene expression was quantified via p24^CA ELISA or monitoring Gag-GFP fluorescence in cells as described below. In parallel, cell viability of treatments were assessed by XTT assay (Sigma-Aldrich, #TOX2). […]
treatment of 24ST1NLESG cells (n ≥ 4, mean, s.e.m.). […] Cell lysates were analyzed by western blot with antibodies specific for (c) HIV-1 structural protein, Gag, and (d) viral regulatory factor, Tat. […]

Compound: C[C@]12CC[C@H](O)C[C@H]1CC[C@@H]1[C@@H]2CC[C@]2(C)[C@@H](C3=CC(=O)OC3)CC[C@]12O [Digitoxigenin]
- p16 Tat expression (HIV-1 Tat (p16/p14)): 57 % of control

Compound: C[C@H]1O[C@@H](O[C@H]2[C@@H](O)C[C@H](O[C@H]3[C@@H](O)C[C@H](O[C@H]4CC[C@@]5(C)[C@H](CC[C@@H]6[C@@H]5CC[C@]5(C)[C@@H](C7=CC(=O)OC7)CC[C@]65O)C4)O[C@@H]3C)O[C@@H]2C)C[C@H](O)[C@@H]1O [Digitoxin]
- HIV-1 gene expression in 24ST1NLESG cells (HIV-1 gene expression): Dose-dependent inhibition

From publication PMC5770468, “Cardiac glycoside/aglycones inhibit HIV-1 gene expression by a mechanism requiring MEK1/2-ERK1/2 signaling” (Scientific Reports, 2018)
